This is an account of results in patent US11648248B1 (King Abdulaziz University, priority 2022, dated 2023).

Experiment in all cases: MIC broth microdilution, initial screening
Holding throughout (format): cell-based
On the technique in general: Broth dilution looks for growth in wells or tubes with falling amounts of substance.

Experiment [1] concerns Clostridium difficile (ATCC-BAA1870). To be noted: anaerobic, 48 hours; for MIC: Clostridioides difficile, ATCCBAA1870, 48 h, read-out: minimum inhibitory concentration (MIC) C. difficile (ATCC-BAA1870). On the procedure: (§1) The minimum inhibitory concentrations (MICs) of the tested compounds and control drugs (linezolid, vancomycin, gentamicin (antibiotics) and fluconazole and 5-fluorocytosine (5-FC) (antifungal drugs)) were determined using the broth microdilution method, according to guidelines outlined by the Clinical and Laboratory Standards Institute (CLSI, Clinical and Laboratory Standards Institute, Methods for antimicrobial susceptibility testing of anaerobic bacteria; approved standard, M11-A8. 8th ed., 2012; CLSI, Clinical and Laboratory Standards Institute. M27-A3 Reference Method for Broth Dilution Antifungal Susceptibility Testing of Yeasts; Approved Standard—Third Edition, Wayne, Pa., 2008) against clinically-relevant bacterial (methicillin-resistant Staphylococcus aureus (MRSA), Escherichia coli, and C. difficile strains) and fungal (Candida albicans) strains. S. aureus and E. coli were grown aerobically overnight on tryptone soy agar plates at 37° C. C. difficile was grown anaerobically on brain heart infusion supplemented agar at 37° C. for 48 hours. C. albicans was grown aerobically overnight on yeast peptone dextrose (YPD) agar plate at 35° C. Afterwards, a bacterial solution equivalent to 0.5 McFarland standard was prepared and diluted in cation-adjusted Mueller-Hinton broth (CAMHB) (for S. aureus and E. coli) to achieve a bacterial concentration of about 5×10^5 CFU/mL. C. difficile was diluted in brain heart infusion supplemented broth, supplemented with yeast extract, hemin and vitamin K to achieve a bacterial concentration of about 5×10^5 CFU/mL. C. albicans was diluted in Roswell Park Memorial Institute (RPMI 1640) medium with glutamine and without bicarbonate (GIBCO by Life Technologies, Green Island, N.Y., USA) which was buffered to pH 7.0 with 0.165 M of [3-(N-morpholino) propanesulfonic acid] (MOPS) (DOT Scientific Inc., Burton, Mich., USA) to achieve a fungal concentration of about 1.5×10^3 CFU/mL. Compounds and control drugs were added in the first row of the 96-well plates and serially diluted with the corresponding media containing bacteria. Plates were then incubated aerobically at 37° C. for 18-20 hours (for S. aureus and E. coli). C. difficile was incubated anaerobically at 37° C. for 48 hours. C. albicans was incubated aerobically at 37° C. for 24 hours.
(§2) The minimum inhibitory concentrations (MICs) of the tested compounds and control drugs; linezolid, vancomycin, gentamicin (antibiotics) and fluconazole and 5-fluorocytosine (5-FC) (antifungal drugs) were determined using the broth microdilution method, according to guidelines outlined by the Clinical and Laboratory Standards Institute (CLSI)^1, 2, 3 against clinically-relevant bacterial (methicillin-resistant Staphylococcus aureus (MRSA), Escherichia coli and Clostridium difficile strains) and fungal (Candida albicans) strain. S. aureus and E. coli were grown aerobically overnight on tryptone soy agar plates at 37° C. C. difficile was grown anaerobically on brain heart infusion supplemented agar at 37° C. for 48 hours. C. albicans was grown aerobically overnight on yeast peptone dextrose (YPD) agar plate at 35° C. Afterwards, a bacterial solution equivalent to 0.5 McFarland standard was prepared and diluted in cation-adjusted Mueller-Hinton broth (CAMHB) (for S. aureus and E. coli) to achieve a bacterial concentration of about 5×10^5 CFU/mL. C. difficile was diluted in brain heart infusion supplemented broth, supplemented with yeast extract, hemin and vitamin K to achieve a bacterial concentration of about 5×10^5 CFU/mL. C. albicans was diluted in Roswell Park Memorial Institute (RPMI 1640) medium with glutamine and without bicarbonate (GIBCO by Life Technologies, Green Island, N.Y., USA) which was buffered to pH 7.0 with 0.165 M of [3-(N-morpholino) propanesulfonic acid]

The test system of experiment [2] is Methicillin-resistant Staphylococcus aureus NRS384 (MRSA USA300). On the procedure: as §1, §2
The test system of experiment [3] is Escherichia coli JW55031 (TolC mutant). As to conditions: for MIC: Escherichia coli, read-out: minimum inhibitory concentration (MIC) E. coli (TolC mutant), E. coli JW55031, 18-20 hours. On the procedure:
as §1, §2

Experiment [4] deals with Escherichia coli BW25113 (wild-type). To be noted: for MIC: Escherichia coli, E. coli BW25113, 18-20 hours, read-out: minimum inhibitory concentration (MIC) E. coli (Wild-type). The method, then:
as §1, §2

Another experiment concerns C. albicans (ATCC 64124). As to conditions: Candida albicans, read-out: minimum inhibitory concentration (MIC) C. albicans (ATCC 64124). On the procedure: as §1, §2
Where [5] appears, read: read-out: minimum inhibitory concentration (MIC) S. aureus (MRSA USA300), MRSA NRS384 (USA300), broth microdilution, 18-20 hours.

In brackets after ≈: the same amount, converted by molar mass. Where two headings read alike, the source gives them in different places.

As to `Cc1cc(Cl)ccc1NC(=O)Nc1ccc(-c2ccc(=O)[nH]n2)cc1`, the “minimum inhibitory concentration (MIC) C. difficile (ATCC-BAA1870)” value in experiment [1] amounted to 64 µg/mL (≈ 180 µM). Further, the MIC in experiment [2] (MRSA|NRS384|USA300, read-out: minimum inhibitory concentration (MIC) S. aureus (MRSA USA300), MRSA NRS384 (USA300), broth microdilution, 18-20 hours) is greater than 128 µg/mL; in experiment [3] it was 64 µg/mL (≈ 180 µM); in experiment [4], greater than 128 µg/mL; in the experiment on C. albicans (ATCC 64124) (ATCC64124, 24 h) it was greater than 128 µg/mL.

In the case of `Nc1nc(=O)[nH]cc1F` [5-Fluorocytosine, 5-fluorocytosine, reference compound], the MIC in the experiment on C. albicans (ATCC 64124) (ATCC64124, RPMI 1640, 24 hours) was found to be 0.25 µg/mL (≈ 1.94 µM).

Take `OC(Cn1cncn1)(Cn1cncn1)c1ccc(F)cc1F` [Fluconazole, reference compound]: the MIC in the experiment with C. albicans (ATCC 64124) (ATCC64124, RPMI 1640, 24 hours) was greater than 128 µg/mL.

`Cc1cccc(NC(=O)Nc2ccc(Oc3ccc(=O)[nH]n3)cc2)c1` [MY32, 1-(4-((6-oxo-1,6-dihydropyridazin-3-yl)oxy)phenyl)-3-(m-tolyl)urea]: the MIC in experiment [1] is greater than 128 µg/mL; in experiment [2] (setting [5]), greater than 128 µg/mL; in experiment [3], greater than 128 µg/mL; in experiment [4] it was greater than 128 µg/mL; in the experiment with C. albicans (ATCC 64124) (ATCC64124, 24 h), greater than 128 µg/mL.

Regarding `COc1ccc(NC(=O)Nc2cccc(-c3ccc(=O)[nH]n3)c2)cc1` [MY33, 1-(4-methoxyphenyl)-3-(3-(6-oxo-1,6-dihydropyridazin-3-yl)phenyl)urea], the MIC in experiment [1] is greater than 128 µg/mL; in experiment [2] (setting [5]) it was greater than 128 µg/mL; in experiment [3] it was greater than 128 µg/mL; in experiment [4], greater than 128 µg/mL; with C. albicans (ATCC 64124) (ATCC64124, 24 h) it was greater than 128 µg/mL.

`O=C(Nc1cccc(Nc2ccc(=O)[nH]n2)c1)Nc1ccc(Cl)c(Cl)c1` [MY49, 1-(3,4-dichlorophenyl)-3-(3-((6-oxo-1,6-dihydropyridazin-3-yl)amino)phenyl)urea]: the MIC in experiment [1] is greater than 128 µg/mL; in experiment [2] (setting [5]), greater than 128 µg/mL; in experiment [3], greater than 128 µg/mL; in experiment [4], greater than 128 µg/mL; in the experiment on C. albicans (ATCC 64124) (ATCC64124, 24 h), greater than 128 µg/mL.

As to `O=C(Nc1cccc(Nc2ccc(=O)[nH]n2)c1)Nc1ccc(Cl)c(C(F)(F)F)c1` [MY50, 1-(4-chloro-3-(trifluoromethyl)phenyl)-3-(3-((6-oxo-1,6-dihydropyridazin-3-yl)amino)phenyl)urea], the MIC is greater than 128 µg/mL in experiment [1]; greater than 128 µg/mL in experiment [2] (setting [5]); 128 µg/mL (≈ 302 µM) in experiment [3]; greater than 128 µg/mL in experiment [4]; greater than 128 µg/mL in the experiment with C. albicans (ATCC 64124) (ATCC64124, 24 h).

For Gentamicin [reference compound], the “minimum inhibitory concentration (MIC) E. coli (TolC mutant)” value in experiment [3] (E. coli JW55031, 18-20 hours) stood at 0.25 µg/mL. Further, the “minimum inhibitory concentration (MIC) E. coli (Wild-type)” value in experiment [4] (18-20 hours) is 0.5 µg/mL.
